Several values for one entry are separate records, joined by “and”; a condition that tells them apart may be missing. Identical values can stand only once.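 1) Cells in 96-well plates. 2) Compound, 48 h, 5 concentrations. 3) Linear interpolation between surrounding doses. 4) Unreached endpoint = highest concentration. GI50: concentration for 50% inhibition of growth.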 Activity calls are given as the source filed them. No stated cut-off is given here; in the data, active = GI50 up to about 1.1 µM and inactive = higher.
Columns and labels:
Assay in all cases: inhibition of tumour cell growth, NCI panel, 48 h
[1] = test system: SN12C
[2] = test system: DMS-114
[3] = test system: OVCAR-3
[4] = test system: HCT-116
[5] = test system: A549
[6] = test system: A498
[7] = test system: DLD-1
[8] = test system: HOP-62
[9] = test system: SNB-75
[10] = test system: HCC 2998
[11] = test system: SF-539
[12] = test system: OVCAR-4
[13] = test system: COLO 205
[14] = test system: RXF 393
[15] = test system: HCT-15
[16] = test system: OVCAR-5
[17] = test system: SNB-19
[18] = test system: HT-29
[19] = test system: MOLT-4
[20] = test system: SR

| Compound | GI50 [1] | GI50 [2] | GI50 [3] | GI50 [4] | GI50 [5] | GI50 [6] | GI50 [7] | GI50 [8] | GI50 [9] | GI50 [10] | GI50 [11] | GI50 [12] | GI50 [13] | GI50 [14] | GI50 [15] | GI50 [16] | GI50 [17] | GI50 [18] | GI50 [19] | GI50 [20] |
| --- | --- | --- | --- | --- | --- | --- | --- | --- | --- | --- | --- | --- | --- | --- | --- | --- | --- | --- | --- | --- |
| C[Si](C)(C)C#C[I+]c1ccccc1 | 21.7 µM (inactive) | 20.9 µM (inactive) | 32.7 µM (inactive) | 27.5 µM (inactive) | > 100 µM (inactive) | > 100 µM (inactive) | 19.4 µM (inactive) | > 100 µM (inactive) | 40.4 µM (inactive) | > 100 µM (inactive) | 28.9 µM (inactive) | 36.2 µM (inactive) | 17.7 µM (inactive) | 47.4 µM (inactive) | 22.5 µM | > 100 µM (inactive) | > 100 µM (inactive) | 32.9 µM (inactive) | 29.4 µM (inactive) | – |
| O/N=C1/C(=C/c2ccc(Cl)cc2)CCCC1C(NO)c1ccc(Cl)cc1 (stereo not drawn) | 19.3 µM (inactive) | 24.5 µM (inactive) | 16.8 µM (inactive) | 23.9 µM (inactive) | 20.3 µM (inactive) | 18.1 µM (inactive) | 26.5 µM (inactive) | 22.8 µM (inactive) | 12.6 µM (inactive) | 15.5 µM (inactive) | 25.2 µM (inactive) | 15.6 µM (inactive) | 20.7 µM (inactive) | 12 µM (inactive) | 19.1 µM | – | 24.2 µM (inactive) | 19.2 µM (inactive) | 14.7 µM (inactive) | – |
| COc1ccc(/C=C/C(=O)c2c(-c3ccccc3)nn(C)c(=O)c2N2CCOCC2)cc1 | > 100 µM (inactive) | > 100 µM (inactive) | – | 54.2 µM (inactive) | > 100 µM (inactive) | > 100 µM (inactive) | > 100 µM (inactive) | – | – | – | > 100 µM (inactive) | – | > 100 µM (inactive) | > 100 µM (inactive) | 65.9 µM | – | > 100 µM (inactive) | > 100 µM (inactive) | 43.5 µM (inactive) | – |
| C/C(=N/OCCC(=O)O)C1CC1 | > 100 µM (inactive) | > 100 µM (inactive) | > 100 µM (inactive) | > 100 µM (inactive) | > 100 µM (inactive) | – | > 100 µM (inactive) | > 100 µM (inactive) | > 100 µM (inactive) | > 100 µM (inactive) | > 100 µM (inactive) | > 100 µM (inactive) | > 100 µM (inactive) | > 100 µM (inactive) | > 100 µM | – | > 100 µM (inactive) | > 100 µM (inactive) | – | 90.4 µM (inactive) |
| CC(C)=CCSC1CC2C(CC1(C)O)C2(C)C (stereo not drawn) | 17 µM (inactive) and 15.6 µM (inactive) | 15.6 µM (inactive) and 10.1 µM (inactive) | 17.1 µM (inactive) and 11.4 µM (inactive) | 15.3 µM (inactive) and 17.1 µM (inactive) | 11.6 µM (inactive) and 16.6 µM (inactive) | 21.6 µM (inactive) and 17.3 µM (inactive) | 17.3 µM (inactive) and 13.8 µM (inactive) | 16.4 µM (inactive) and 16.6 µM (inactive) | 15.8 µM (inactive) and 11.5 µM (inactive) | 1.83 µM (inactive) and 2.82 µM (inactive) | 18 µM (inactive) and 15.6 µM (inactive) | 19.7 µM (inactive) and 15.8 µM (inactive) | 17.1 µM (inactive) and 18.5 µM (inactive) | – | 17.3 µM and 16.1 µM | 14.9 µM (inactive) and 16.5 µM (inactive) | 17.2 µM (inactive) and 19.3 µM (inactive) | 15.7 µM (inactive) and 14.9 µM (inactive) | 13.6 µM (inactive) and 20.9 µM (inactive) | – |
| CN(C)/C(=N/C(=S)Nc1ccccc1)SCc1ccccc1 | 66.2 µM (inactive) | 9.93 µM (inactive) | 56.8 µM (inactive) | – | 32 µM (inactive) | 83.8 µM (inactive) | 44.3 µM (inactive) | 71.6 µM (inactive) | 30.3 µM (inactive) | 36.4 µM (inactive) | > 100 µM (inactive) | 5.47 µM (inactive) | 14.9 µM (inactive) | 27.7 µM (inactive) | 57.5 µM | > 100 µM (inactive) | 40.3 µM (inactive) | 3.88 µM (inactive) | 32.5 µM (inactive) | – |
| Nc1c(-c2ccc(Br)cc2)[n+]([O-])c2ccccc2[n+]1[O-] | > 100 µM (inactive) | 50.9 µM (inactive) | 92 µM (inactive) | > 100 µM (inactive) | 92 µM (inactive) | > 100 µM (inactive) | > 100 µM (inactive) | > 100 µM (inactive) | 81.3 µM (inactive) | – | > 100 µM (inactive) | > 100 µM (inactive) | > 100 µM (inactive) | – | > 100 µM | > 100 µM (inactive) | > 100 µM (inactive) | > 100 µM (inactive) | 39.2 µM (inactive) | – |
| OCC1C(/C=C/c2ccoc2)ON2CCCC12 (stereo not drawn) | > 100 µM (inactive) | – | – | – | > 100 µM (inactive) | – | > 100 µM (inactive) | > 100 µM (inactive) | > 100 µM (inactive) | > 100 µM (inactive) | > 100 µM (inactive) | > 100 µM (inactive) | > 100 µM (inactive) | > 100 µM (inactive) | – | > 100 µM (inactive) | > 100 µM (inactive) | > 100 µM (inactive) | – | – |
| Cc1cccc(C)c1NC(=O)C1C(=O)N(c2c(C)cccc2C)C(=O)/C1=N\NC(N)=S (stereo not drawn) | > 100 µM (inactive) | 36.1 µM (inactive) | > 100 µM (inactive) | 58.2 µM (inactive) | > 100 µM (inactive) | > 100 µM (inactive) | > 100 µM (inactive) | > 100 µM (inactive) | – | > 100 µM (inactive) | > 100 µM (inactive) | > 100 µM (inactive) | – | 10.4 µM (inactive) | > 100 µM | > 100 µM (inactive) | > 100 µM (inactive) | > 100 µM (inactive) | 75.3 µM (inactive) | – |
| Cc1c(C(=O)/C=C/c2ccc(N(C)C)cc2)c(=O)n(-c2ccccc2)n1C | > 100 µM (inactive) | > 100 µM (inactive) | > 100 µM (inactive) | > 100 µM (inactive) | > 100 µM (inactive) | > 100 µM (inactive) | – | – | – | > 100 µM (inactive) | > 100 µM (inactive) | – | > 100 µM (inactive) | > 100 µM (inactive) | > 100 µM | > 100 µM (inactive) | > 100 µM (inactive) | > 100 µM (inactive) | > 100 µM (inactive) | – |
| c1ccc(-c2nnc(-c3nn(-c4ccccc4)c4nc5ccccc5nc34)o2)cc1 | > 100 µM (inactive) | 28.8 µM (inactive) | 66.8 µM (inactive) | 34.8 µM (inactive) | > 100 µM (inactive) | – | 25.1 µM (inactive) | > 100 µM (inactive) | > 100 µM (inactive) | > 100 µM (inactive) | 68.4 µM (inactive) | > 100 µM (inactive) | 93.8 µM (inactive) | 4.3 µM (inactive) | 43.5 µM | > 100 µM (inactive) | > 100 µM (inactive) | > 100 µM (inactive) | 21.5 µM (inactive) | – |
| NC1=NC(=O)/C(=C2\CCNC(=O)c3[nH]c(Br)cc32)N1 [HYMENIALDISINE] | 19.5 µM (inactive) and 11.3 µM (inactive) | 13 µM (inactive) | – | 7.16 µM (inactive) and 5.57 µM (inactive) | > 70.3 µM (inactive) | – | 37.6 µM (inactive) | 40.8 µM (inactive) and 31.9 µM (inactive) | 34.8 µM (inactive) and 40 µM (inactive) | 57.9 µM (inactive) and 55.3 µM (inactive) | – | 15.3 µM (inactive) and 17.5 µM (inactive) | – | 29.7 µM (inactive) and 34.6 µM (inactive) | 29.7 µM and 42.5 µM | > 52.1 µM (inactive) and > 57.5 µM (inactive) | 39.1 µM (inactive) and 48.2 µM (inactive) | – | 4.28 µM (inactive) and 3.45 µM (inactive) | 0.303 µM (active) |
